In publication PMC8171317, “Total synthesis, isolation, surfactant properties, and biological evaluation of ananatosides and related macrodilactone-containing rhamnolipids” (Chemical Science, 2021):

Assay: Dynamic light scattering (Zetasizer), hydrodynamic diameter of micelles
Type: physicochemical
Conditions: pH 7.0; concentration 80 μM
From the text: In parallel to these experiments, we took advantage of dynamic light scattering (DLS) to evaluate the hydrodynamic diameter of biosurfactant micelles formed at concentrations above the CMC (Table 4).[79] DLS considers the intensity of light scattered by spherical particles, which prevents its application for highly polydisperse and non-spherical colloidal systems. […] Once again, due to its hydrophobicity, ananatoside A (1) was too polydisperse for conducting a proper distribution analysis, showing a Z-average value above 800 nm, which meant that the particles were aggregated in water at the tested concentration. Similar results were obtained for ananatoside A (1) when the DLS experiments were conducted in DMSO as the solvent.

Z-Average (hydrodynamic diameter of micelles): 99.0 nm
SMILES: CCCCCCC[C@H](CC(=O)O)OC(=O)C[C@@H](CCCCCCC)O[C@@H]1O[C@H](CO)[C@@H](O)[C@H](O)[C@H]1O [Compound 2, ananatoside B]
